Measurements published in the supplement of paper PMC10307832.

Key:
Test in all cases: relative viability (nuclei count vs DMSO), 5 days (fraction); higher = more cells survive
Idelalisib + AZD7762 = compound: CC[C@H](Nc1ncnc2[nH]cnc12)c1nc2cccc(F)c2c(=O)n1-c1ccccc1 [Idelalisib] + NC(=O)Nc1cc(-c2cccc(F)c2)sc1C(=O)N[C@H]1CCCNC1 [AZD7762] (partner 0.2 µM)
Procedure, shortened: (§1)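 One day after seeding in 1536-well plates, lung cancer cell lines were dosed by pin tool. Dosing was either single-drug or a fixed anchor-drug dose plus five library-drug doses (not always all listed) in √10 steps. After 5 days, nuclei were stained in one fix-and-stain step and counted on 4× images, and relative viability is the nuclei count of treated wells over that of vehicle wells, given as the median of duplicate plates.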

Idelalisib + Palbociclib = compound: CC[C@H](Nc1ncnc2[nH]cnc12)c1nc2cccc(F)c2c(=O)n1-c1ccccc1 [Idelalisib] + CC(=O)c1c(C)c2cnc(Nc3ccc(N4CCNCC4)cn3)nc2n(C2CCCC2)c1=O [Palbociclib] (partner 0.5 µM)
Procedure, shortened: as §1

Idelalisib + Luminespib = compound: CC[C@H](Nc1ncnc2[nH]cnc12)c1nc2cccc(F)c2c(=O)n1-c1ccccc1 [Idelalisib] + CCNC(=O)c1noc(-c2cc(C(C)C)c(O)cc2O)c1-c1ccc(CN2CCOCC2)cc1 [Luminespib] (partner 0.01 µM)
Procedure, shortened: as §1

Pemetrexed + AZD7762 = compound: Nc1nc2[nH]cc(CCc3ccc(C(=O)N[C@@H](CCC(=O)O)C(=O)O)cc3)c2c(=O)[nH]1 [Pemetrexed] + NC(=O)Nc1cc(-c2cccc(F)c2)sc1C(=O)N[C@H]1CCCNC1 [AZD7762] (partner 0.2 µM)
Procedure, shortened: as §1

| Cell Line | relative viability (Idelalisib + AZD7762; first compound 0.04 µM) | relative viability (Idelalisib + AZD7762; first compound 0.1265 µM) | relative viability (Idelalisib + AZD7762; first compound 0.4 µM) | relative viability (Idelalisib + AZD7762; first compound 1.265 µM) | relative viability (Idelalisib + AZD7762; first compound 4 µM) | relative viability (Idelalisib + Palbociclib; first compound 0.04 µM) | relative viability (Idelalisib + Palbociclib; first compound 0.1265 µM) | relative viability (Idelalisib + Palbociclib; first compound 0.4 µM) | relative viability (Idelalisib + Palbociclib; first compound 1.265 µM) | relative viability (Idelalisib + Palbociclib; first compound 4 µM) | relative viability (Idelalisib + Luminespib; first compound 0.04 µM) | relative viability (Idelalisib + Luminespib; first compound 0.1265 µM) | relative viability (Idelalisib + Luminespib; first compound 1.265 µM) | relative viability (Idelalisib + Luminespib; first compound 4 µM) | relative viability (Pemetrexed + AZD7762; first compound 0.002 µM) | relative viability (Pemetrexed + AZD7762; first compound 0.006325 µM) | relative viability (Pemetrexed + AZD7762; first compound 0.02 µM) | relative viability (Pemetrexed + AZD7762; first compound 0.06325 µM) | relative viability (Pemetrexed + AZD7762; first compound 0.2 µM) | relative viability (Idelalisib + Luminespib; first compound 0.4 µM) |
| --- | --- | --- | --- | --- | --- | --- | --- | --- | --- | --- | --- | --- | --- | --- | --- | --- | --- | --- | --- | --- |
| NCI-H1792 | 0.737 | 0.803 | 0.452 | 0.493 | 0.388 | 0.632 | 0.668 | 0.557 | 0.668 | 0.55 | 0.408 | 0.434 | 0.679 | 0.33 | 0.608 | 0.633 | 0.697 | 0.676 | 0.633 |  |
| NCI-H1793 | 0.758 | 0.449 |  | 0.14 | 0.326 | 0.331 | 0.27 |  | 0.298 | 0.26 | 0.208 | 0.253 | 0.179 | 0.183 | 0.468 | 0.404 | 0.966 | 0.446 | 0.509 | 0.166 |
| NCI-H1915 | 0.766 | 0.687 | 0.643 | 0.552 | 0.68 | 0.603 | 0.482 | 0.5 | 0.577 | 0.495 | 0.843 | 0.809 | 0.878 | 0.83 | 0.6 | 0.638 | 0.751 | 0.599 | 0.652 | 0.759 |
| NCI-H1944 | 0.554 | 0.501 | 0.457 | 0.2 | 0.61 | 0.36 | 0.315 | 0.297 | 0.292 | 0.283 | 0.809 | 0.621 | 0.636 | 0.532 | 0.48 | 0.432 | 0.582 | 0.506 | 0.531 | 0.609 |
| NCI-H1975 | 0.75 | 0.724 | 0.661 | 0.743 | 0.646 | 0.586 | 0.653 | 0.429 | 0.583 | 0.406 | 0.216 | 0.157 | 0.213 | 0.207 |  | 0.819 | 0.818 | 0.583 | 0.35 | 0.16 |
| NCI-H1993 | 0.647 | 0.839 | 0.652 | 0.714 | 0.623 | 0.642 | 0.743 | 0.49 | 0.523 | 0.491 | 0.778 | 0.889 | 1.06 | 0.822 | 0.546 | 0.825 | 0.779 | 0.563 | 0.481 | 0.779 |
| NCI-H2085 | 0.951 | 0.979 | 0.887 | 0.436 | 0.471 | 0.466 | 0.445 | 0.483 | 0.422 | 0.464 | 0.422 | 0.409 | 0.487 | 0.257 | 0.921 | 0.936 | 1.04 | 0.959 | 0.916 | 0.374 |
| NCI-H2087 | 1.34 | 1.33 | 1.32 | 1.19 | 1.32 | 0.216 | 0.173 | 0.15 | 0.223 | 0.169 | 0.198 | 0.213 | 0.165 | 0.115 | 1.2 | 1.22 | 1.44 | 1.3 | 0.799 | 0.16 |
